Measurements from ChEMBL document CHEMBL3507680, “University of Dundee, Gates Library screen for HepG2 cell viability”.

Assay: Human HepG2 cell viability assay in 384 well format
Format: toxicity, cell-based
Set-up: dose 125 nL, time 70.5 hour; concentration not given beside the values
Conditions: HepG2 cells, read-out: Inhibition

SMILES | cytotoxicity at 70.5 h [%]
CCN1CC2(CCCCN2C(=O)c2ccn(C)n2)CC1=O (stereo not drawn) | 0.273
O=C1CC2(CCCCN2C(=O)c2ccoc2)CN1Cc1ccccc1 (stereo not drawn) | 3.41
CC(=O)N1CCC2(CCN(CC3CCCCC3)C2)CC1 | 3.48
CC(C)C(=O)N1CCC2(CC1)NC(=O)[C@H]1CN(Cc3cccnc3)C[C@H]12 | 4.61
NC(=O)N1C[C@@H]2CN(C(=O)c3ccco3)C[C@@H]2C1 | -7.36
CC(C)NC(=O)N1CCOC2(CCNCC2)C1 | -2.57
CC(C)C(=O)NC1COC2(CCN(C(=O)c3cccnc3)CC2)C1 (stereo not drawn) | -3.81
O=C1CCC2(CCCN(C(=O)c3ccco3)CC2)N1 (stereo not drawn) | -3.81
O=S(=O)(c1cccc(Cl)c1)N1C[C@@H]2CCN[C@@H]2C1 | -0.439
O=C1CCCC2(CCN(C(=O)c3cnccn3)CC2)N1 | -4.91
CN(C)C1COC2(CCN(C(=O)c3cccnc3)CC2)C1 (stereo not drawn) | -6.03
CN1C(=O)CC[C@@H]2[C@H]1CCN2S(=O)(=O)c1cccs1 | -1.06
CC(C)NC(=O)N1CCC2(CC1)NC(=O)[C@H]1CN(C(=O)N(C)C)C[C@H]12 | -3.94
CCS(=O)(=O)N1CCC2(CC1)CN(C(=O)N(C)C)Cc1ccccc12 | -2.71
C[C@H]1C[C@H]2CN(C(=O)C3=CCCCC3)CC[C@H]2O1 | -2.58
O=C(C1CCCC1)N1C[C@@H]2CCNC[C@@H]21 | -9.43
CCN1C(=O)C(c2ccccc2)CC12CCN(c1ncccn1)CC2 (stereo not drawn) | -18.6
O=C(c1ccsc1)N1C[C@@H]2CCN(C(=O)c3cccc(F)c3)[C@@H]2C1 | -11.5
O=C(NC1CCCC1)c1n[nH]c2c1CNCC2 | -12.1
O=C(NC1CCC1)c1n[nH]c2c1CNCC2 | -8.89
CC(C)CC(=O)N1CCC2(CC1)NC(=O)[C@H]1CN(C(=O)N(C)C)C[C@H]12 | -7.99
CC(=O)N1CCc2[nH]nc(C(=O)N3CCOCC3)c2C1 | -4.57
O=C(Nc1cccnc1)c1noc2c1CN(S(=O)(=O)C1CC1)CC2 | -12.1
O=C(c1ccco1)N1C[C@H]2CCCN(C(=O)c3ccsc3)[C@H]2C1 | -16.2
COCC(=O)N1CCC2(CC1)NC(=O)[C@H]1CN(C(=O)N(C)C)C[C@H]12 | -7.64
Cc1ccc(CN2C[C@H]3CN(CC4CCN(C)CC4)C(=O)[C@H]3C2)s1 | -12.7

SMILES | cytotoxicity at 70.5 h [%]
O=C(C1CCCC1)N1C[C@H]2CNC[C@H]2C1 | -8.49
O=C(Cc1cccc(F)c1)N1C[C@H]2CN(Cc3cccnc3)C[C@H]2C1 | -12
COc1ccc(CN2Cc3[nH]nc(C(=O)N(C)C)c3C2)cc1 | -11.8
O=C(NCc1ccco1)[C@H]1C[C@H]2OCC[C@H]2N(C(=O)c2ccnnc2)C1 | -12.6
O=C(NCC1CC1)C1CN(Cc2cccs2)Cc2ccnn2C1 (stereo not drawn) | -13.4
O=C(c1ccco1)N1CCOCC2(C1)CN(c1ccoc1)C(=O)CO2 (stereo not drawn) | -10
O=C(NC1CC1)N1CCOCC2(C1)CN(c1ccccc1)C(=O)CO2 (stereo not drawn) | -9.6
CC(C)CNC(=O)c1cc2c(s1)CCN2S(C)(=O)=O | -10.9
CCOCC1CN(C(=O)N2CCCC2)Cc2cnn(C)c21 (stereo not drawn) | -6.47
CS(=O)(=O)N1CCc2sc(C(=O)NCc3ccncc3)cc21 | -7.65
Cc1occc1C(=O)N1C[C@@H](C(=O)NCc2ccco2)C[C@H]2OCC[C@H]21 | -10.4
CCOCC1CN(C(=O)C2=CCCC2)Cc2cnn(C)c21 (stereo not drawn) | -14.7
CN1CCN(C(=O)[C@@H]2C[C@@H]3CCN(c4cccc(F)c4)C[C@H]3O2)CC1 | -11.9
CCOCC1CN(C(=O)c2cccc(C)n2)Cc2cnn(C)c21 (stereo not drawn) | -11.5
Cc1ccc(C(=O)N2CCO[C@H]3[C@H](OCCN(C)C)CC[C@@H]32)cn1 | -1.99
CN1CCN(C[C@@H]2OC[C@H]3CN(Cc4ccncc4)CC[C@H]32)CC1 | 0.409
CN(C)C(=O)COCC1CN(CC2CCOCC2)Cc2ncn(C)c21 (stereo not drawn) | -1.41
CN1CCN(C[C@H]2OC[C@@H]3CCN(Cc4ccsc4)C[C@@H]32)CC1 | -0.843
Cc1ccc(N2CCc3ncc(CNc4ccccn4)n3CC2)nn1 | -1.74
CN(C)CCN1Cc2ncn(C)c2C(COCC(=O)N(C)C)C1 (stereo not drawn) | -8.47
CC1=N[C@@]2(CC[C@@H]3CN(C(=O)NCC(C)C)C[C@@H]32)C(=O)N1C | -0.53
Cc1noc([C@@]23CCO[C@@H]2CCN(C(=O)c2cc(C)c(C)s2)C3)n1 | -0.38
Cc1ccc(C(=O)N2CCN3C[C@H](Oc4cncnc4)C[C@H]3C2)cn1 | -0.158
N#CC1(C(=O)NCC2CCC3(CCNCC3)O2)CC1 (stereo not drawn) | 20
CC(C)N1CCC2(CCCNC2)C1=O (stereo not drawn) | -14.6
COCc1nn(CC2CC2)c2c1CN(Cc1cccs1)CC2 | -8.23

SMILES | cytotoxicity at 70.5 h [%]
CS(=O)(=O)N1CCC2(CC1)CN(CC1CC1)CC21CCNC1=O (stereo not drawn) | -9.45
CC(C)CN1CCC2(CC1)CN(C(=O)C(C)C)C2 | -9.29
CCOCc1nn(CC2CC2)c2c1CN(Cc1ccco1)CC2 | -6.88
O=C1CCC2(CCCN(C(=O)c3ccccn3)CC2)N1 (stereo not drawn) | -1.45
CC(C)OCc1nn(CC2CC2)c2c1CN(Cc1ccco1)CC2 | -1.8
Cc1ccc(CN2CCC3(CCCC(=O)N3)CC2)s1 | -3.64
O=C1CCCC2(CCN(C(=O)c3ccccn3)CC2)N1 | -1.46
CC(C)CN1C[C@@H]2C(=O)N(C)C3(CCN(C(=O)C(C)C)CC3)[C@@H]2C1 | -6.33
CCN1CCN(C)C(=O)C12CCN(Cc1ccsc1)CC2 | -13
COCc1nn(C)c2c1CN(Cc1cnn(C)c1)CC2 | -11.4
O=S(=O)(c1cccs1)N1CC[C@H]2[C@H]1CCN2CC1CC1 | -9.72
Cc1cccc(C(=O)N2C[C@@H]3[C@H](CC(=O)NC(C)C)[C@@H]3C2)n1 | -9.84
Cc1ccccc1CN1CCC2(CC1)CN(S(=O)(=O)c1ccccc1)C2 | -6.98
O=C(c1ccccc1)N1CCOC2(CCN(Cc3cccs3)CC2)C1 | 12.2
CC(=O)N1CCC12CCN(Cc1ccco1)CC2 | 19.9
COCCN1CCC2(CC1)CN(C(=O)c1ccco1)CCO2 | 12.3
O=C(c1ccncc1F)N1CC2CC1(C(=O)N1CCCC1)C2 | -11.2
COCC(=O)N1CCOCC2(CCN(Cc3cccs3)C2)C1 (stereo not drawn) | -10.6
CC(C)CCN1C2(CCN(C(=O)CN(C)C)C2)c2ccccc2S1(=O)=O (stereo not drawn) | -5.18
O=C(c1cccs1)N1CCOCC2(C1)CN(c1cccnc1)C(=O)CO2 (stereo not drawn) | -16.5
CN(C)S(=O)(=O)N1C[C@@H]2COC[C@]2(COc2ccccn2)C1 | -17.2
O=C([C@H]1C[C@@H]2CCN(c3cccc(F)c3)C[C@H]2O1)N1CCCC1 | -14.2
O=C([C@@H]1C[C@@H]2CCN(c3cccc(F)c3)C[C@H]2O1)N1CCCC1 | 27.2
CC[C@@H]1N(Cc2ccc(C)o2)CCC[C@]12CCC(=O)N2CCOC | 16.8
CC[C@@H]1N(Cc2ccoc2)CCC[C@]12CCC(=O)N2CCOC | -5.78
O=C([C@H]1C[C@@H]2CCN(C3CCOCC3)C[C@H]2O1)N1CCCC1 | -4.47

SMILES | cytotoxicity at 70.5 h [%]
Cn1cc(CN2C[C@@H]3COC[C@]3(C(=O)NCCc3ccccc3)C2)cn1 | -8.15
CN(C)C(=O)[C@@H]1C[C@@H]2CCN(C3CCOCC3)C[C@H]2O1 | -4.53
CN(C)CCO[C@@H]1CC[C@H]2[C@H]1OCCN2C(=O)c1ccnnc1 | 22.4
O=C([C@@H]1C[C@@H]2CCN(C3CCOCC3)C[C@H]2O1)N1CCOCC1 | -0.695
O=C(Cc1cccc(F)c1)N1CCN2C[C@H](Oc3cncnc3)C[C@H]2C1 | -2.68
CCOC[C@@H]1CC[C@H]2[C@H](CCN2Cc2c(C)noc2C)O1 | -0.0549
COCCN1C[C@@H](C)[C@@]2(COCCN(C(=O)c3ccno3)C2)C1 | -1.41
CNC(=O)CN1C(=O)CCC12CCCN(Cc1cccc(F)c1)C2 (stereo not drawn) | -6.75
Cc1cc(CN2CC[C@H]3[C@H]2CCN3C)oc1C | -5.26
CN1CCC2(CC1)CN(CC1CC1)CC21CCNC1=O (stereo not drawn) | -6.91
Cc1cccc(C(=O)N2C[C@@H]3[C@H](CC(=O)Nc4cccnc4)[C@@H]3C2)n1 | -14.3
Cn1cc(CN2CC[C@@H]3[C@@H]2CCN3Cc2ccc3c(c2)OCO3)cn1 | -3
c1cnc(N2CC3(CCN(Cc4cccnc4)C3)C2)nc1 | 9.91
CN(C)C[C@H]1C[C@@H]2CN(Cc3ccco3)C[C@@H]2O1 | -16.1
O=C1[C@H]2CN(Cc3cccs3)C[C@H]2CN1CCN1CCCC1 | 12
CN(C)CCN1C(=O)CCC12CCN(Cc1cccs1)CC2 | -11.7
CC(C)N(C)C[C@H]1C[C@@H]2CN(Cc3ccco3)C[C@@H]2O1 | -1.96
CC(C)Nc1nc(N2CCCC2)nc2c1CCN(S(C)(=O)=O)CC2 | -10.7
CN(C)CCOCc1nnc2n1CCN(CC1CC1)CC2 | 25.8
CCN(CC)Cc1cn2c(n1)CN(C1CCOC1)CC2 (stereo not drawn) | -4.42
O=C(c1ccncc1)N1CCN2C[C@H](Oc3cccc(F)c3)C[C@H]2C1 | -0.421
c1cncc(CN2CC[C@@H]3[C@@H]2CCN3Cc2ccc3c(c2)OCO3)c1 | 0.903
c1ccc(N2CC3(CCN(Cc4cccnc4)C3)C2)nc1 | -7.68
Cc1cccc(CN2Cc3ncn(C)c3C(COCC(=O)N(C)C)C2)n1 (stereo not drawn) | -3.93
CC1c2ncc(CN3CCN(C)CC3)n2CCN1Cc1cnn(C)c1 (stereo not drawn) | 13.6
